“Also recorded” adds a separate entry of the source.
Columns and labels:
CYP 3A4 = target: T1, CYP 3A4 (Homo sapiens, UniProt P08684); experiment: CYP (cytochrome P450)-suppressing effect, BD GENTEST kit; format: in vitro ADME
T1 construct: purchased BD GENTEST 459500
Protocol: (§1) To evaluate the CYP (cytochrome P450)-suppressing activity of the compounds prepared in the examples of the invention, the following experiment was performed.
(§2) The analysis of CYP1A2, 2C19, and 3A4 suppressing activity was performed by using a BD GENTEST (459100, 459400, and 459500) kit, and the analysis of CYP 2C9- and 2D6-suppressing activity was performed by using an Invitrogen (P2861 and P2862) kit.
(§3) When the BD GENTEST kit was used, the compounds of the present invention were diluted in acetonitrile at the final concentration of 50×. The NADPH-Cofactor mix was prepared by diluting the Cofactor, G6PDH, and control protein provided by the kit in DW according to the instructed concentration. 4 μL of the compound of the example (50×) was mixed with 96 μL of NADPH-Cofactor mix in a 96-well plate, followed by pre-incubation in a 37° C. incubator for 10 minutes.
(§4) The enzyme/substrate mixture was diluted in the buffer (0.5 M potassium phosphate, pH 7.4) provided by the kit according to the instructed concentration. Each CYP450 enzyme substrate was diluted in DW at a desired concentration respectively according to the corresponding types of CYP450. 100 μL of the enzyme/substrate mixture was loaded in the plate when the pre-incubation had been completed, followed by reaction in a 37° C. incubator for 15 minutes (1A2) and 30 minutes (3A4 and 2C19). Upon completion of the reaction, the mixture was transferred to a white plate, and the fluorescent wavelength was measured with a microplate reader (1A2, 2C19 excitation 410 nm, emission 460 nm; 3A4, excitation 409 nm, emission 530 nm).
(§5) The test results were calculated by the following formula:
(§6) (1−(fluorescence value of the test material/fluorescence value of the vehicle))×100%.

CYP1A2 = target: T2, CYP1A2 (Homo sapiens, UniProt P05177); experiment: as above; format: in vitro ADME
T2 construct: purchased BD GENTEST 459100
T2 sequence (P05177 1-516): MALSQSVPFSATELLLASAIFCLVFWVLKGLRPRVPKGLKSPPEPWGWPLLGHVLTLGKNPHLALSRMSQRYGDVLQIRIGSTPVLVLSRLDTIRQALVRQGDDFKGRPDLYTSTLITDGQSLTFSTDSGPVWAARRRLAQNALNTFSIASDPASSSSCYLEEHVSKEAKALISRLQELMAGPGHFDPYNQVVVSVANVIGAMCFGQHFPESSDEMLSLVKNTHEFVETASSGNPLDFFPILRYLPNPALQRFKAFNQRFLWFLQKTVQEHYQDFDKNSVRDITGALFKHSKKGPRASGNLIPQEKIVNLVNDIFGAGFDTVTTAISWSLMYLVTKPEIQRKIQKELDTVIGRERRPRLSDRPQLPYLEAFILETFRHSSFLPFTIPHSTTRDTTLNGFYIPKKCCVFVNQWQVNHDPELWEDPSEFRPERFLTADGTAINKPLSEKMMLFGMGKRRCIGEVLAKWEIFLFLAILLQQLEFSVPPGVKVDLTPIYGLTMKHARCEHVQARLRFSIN
Protocol: as §1, §2, §3, §4, §5, §6

CYP 2C19 = target: T3, CYP 2C19 (Homo sapiens, UniProt P33261); experiment: as above; format: in vitro ADME
T3 construct: purchased BD GENTEST 459400
T3 sequence (P33261 whole entry): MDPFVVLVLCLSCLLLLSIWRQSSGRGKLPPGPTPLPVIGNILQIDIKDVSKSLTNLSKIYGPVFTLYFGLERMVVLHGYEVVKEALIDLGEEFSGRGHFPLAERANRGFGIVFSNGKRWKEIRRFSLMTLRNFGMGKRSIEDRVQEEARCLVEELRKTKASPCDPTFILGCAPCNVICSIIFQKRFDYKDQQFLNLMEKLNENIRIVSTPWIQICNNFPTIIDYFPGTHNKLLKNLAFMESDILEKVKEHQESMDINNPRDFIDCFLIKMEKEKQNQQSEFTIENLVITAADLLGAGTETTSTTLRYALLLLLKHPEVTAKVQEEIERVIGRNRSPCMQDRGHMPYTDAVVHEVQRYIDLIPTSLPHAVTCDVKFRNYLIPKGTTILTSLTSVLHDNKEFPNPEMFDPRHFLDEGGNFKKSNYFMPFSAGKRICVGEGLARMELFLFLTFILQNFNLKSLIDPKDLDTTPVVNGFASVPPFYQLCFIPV
Protocol: as §1, §2, §3, §4, §5, §6

CYP 2D6 = target: T4, CYP 2D6 (Homo sapiens, UniProt P10635); experiment: CYP (cytochrome P450)-suppressing effect, Invitrogen Vivid kit; format: in vitro ADME
T4 construct: purchased Invitrogen P2862
T4 sequence (P10635 whole entry): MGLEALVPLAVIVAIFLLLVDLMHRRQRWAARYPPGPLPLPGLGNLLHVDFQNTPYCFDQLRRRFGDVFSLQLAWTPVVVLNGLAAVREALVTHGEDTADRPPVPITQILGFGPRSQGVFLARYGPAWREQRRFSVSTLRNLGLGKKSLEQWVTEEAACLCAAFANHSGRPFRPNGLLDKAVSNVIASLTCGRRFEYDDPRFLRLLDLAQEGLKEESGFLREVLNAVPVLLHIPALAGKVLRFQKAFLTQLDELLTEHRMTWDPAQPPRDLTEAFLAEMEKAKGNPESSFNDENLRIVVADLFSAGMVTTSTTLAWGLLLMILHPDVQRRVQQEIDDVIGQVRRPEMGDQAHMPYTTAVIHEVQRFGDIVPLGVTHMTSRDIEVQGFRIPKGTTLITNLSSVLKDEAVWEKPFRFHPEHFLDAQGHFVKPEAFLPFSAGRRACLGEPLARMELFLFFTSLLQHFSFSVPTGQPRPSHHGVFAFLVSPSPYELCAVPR
Protocol: as §1, §2
(§7) When the Invitrogen kit was used, the compounds of the present invention were diluted in Vivid CYP450 reaction buffer (1×) at the final concentration of 2.5×. The P450 BACULOSOMES sample and Regeneration system (100×) were diluted in Vivid CYP450 reaction buffer (1×) at different proper concentrations. 80 μL of the compound of the invention (2.5×) and […] of the diluted P450 BACULOSOMES sample mixture were mixed in a U-bottom 96-well plate, followed by pre-incubation for 10 minutes. Vivid CYP450 Substrate and NADP+ (100×) were diluted in Vivid CYP450 reaction buffer (1×) at a desired concentration, respectively, according to their corresponding types of CYP450 and substrates. 20 μL of Substrate-NADP+ mix was loaded in the plate when the pre-incubation had been completed, followed by reaction for 1 hour. Upon completion of the reaction, the reaction mixture was transferred in a white plate and fluorescent wavelength was measured with a microplate reader (2C9 excitation 415 nm, emission 460 nm, 2D6 excitation 400 nm, emission 502 nm).
as §5, §6

CYP 2C9 = target: T5, CYP 2C9 (Homo sapiens, UniProt P11712); experiment: as above; format: in vitro ADME
T5 construct: purchased Invitrogen P2861
T5 sequence (P11712 whole entry): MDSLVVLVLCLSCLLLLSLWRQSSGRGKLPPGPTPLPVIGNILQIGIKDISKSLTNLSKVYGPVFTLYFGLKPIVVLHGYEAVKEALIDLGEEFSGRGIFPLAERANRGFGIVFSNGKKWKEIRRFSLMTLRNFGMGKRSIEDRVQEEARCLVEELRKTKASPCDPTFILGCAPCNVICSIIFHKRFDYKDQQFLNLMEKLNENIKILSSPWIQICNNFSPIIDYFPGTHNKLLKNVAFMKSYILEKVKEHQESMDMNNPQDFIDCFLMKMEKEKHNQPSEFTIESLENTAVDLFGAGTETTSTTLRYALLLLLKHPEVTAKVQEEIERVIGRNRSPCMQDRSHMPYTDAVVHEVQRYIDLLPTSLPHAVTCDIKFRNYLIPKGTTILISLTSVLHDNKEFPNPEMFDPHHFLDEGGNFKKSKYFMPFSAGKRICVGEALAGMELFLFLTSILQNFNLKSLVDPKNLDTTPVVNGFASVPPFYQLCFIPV
Protocol: as §1, §2, §7, §5, §6

[1] = tested on: CYP isozymes 1A2, 2C9, 2C19, and 2D6; experiment: CYP suppression compared with comparative examples (Table 3); format: in vitro ADME; details: result in words
Protocol: as §1, §2, §7, §3, §4, §5, §6

[2] = target: T6, PPARG (peroxisome proliferator activated receptor-gamma), GST-PPARG-LBD (Homo sapiens, UniProt P37231); experiment: LanthaScreen TR-FRET PPARG Competitive Binding Assay; parameters: key: “+” indicates the degree of the binding activity, and as the number of “+” increases, the binding activity is stronger; ++: “+” indicates the degree of the binding activity, and as the number of “+” increases, the binding activity is stronger; +++: “+” indicates the degree of the binding activity, and as the number of “+” increases, the binding activity is stronger; ++++: “+” indicates the degree of the binding activity, and as the number of “+” increases, the binding activity is stronger; details: degree of binding activity
T6 construct: 15 μL of 5 nM GST-PPARG-LBD and 5 nM Tb-GST-antibody were added; purchased Invitrogen PV4894
T6 sequence (P37231 238-503 limits assumed): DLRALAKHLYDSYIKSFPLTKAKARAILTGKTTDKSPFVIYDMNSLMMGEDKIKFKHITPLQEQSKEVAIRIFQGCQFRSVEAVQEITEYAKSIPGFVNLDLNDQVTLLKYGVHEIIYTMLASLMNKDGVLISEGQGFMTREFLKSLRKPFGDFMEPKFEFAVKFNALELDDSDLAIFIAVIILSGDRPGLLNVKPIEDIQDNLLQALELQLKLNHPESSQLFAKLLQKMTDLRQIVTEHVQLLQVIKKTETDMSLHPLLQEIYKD
Procedure, shortened: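 Ratio of 518 nm to 488 nm time-resolved emission after a 1 h room-temperature incubation, in competition format with GST-PPARG ligand-binding domain. Values are expressed as 100% minus compound-to-vehicle ratio and related to rosiglitazone binding.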

T1 sequence (P08684 whole entry): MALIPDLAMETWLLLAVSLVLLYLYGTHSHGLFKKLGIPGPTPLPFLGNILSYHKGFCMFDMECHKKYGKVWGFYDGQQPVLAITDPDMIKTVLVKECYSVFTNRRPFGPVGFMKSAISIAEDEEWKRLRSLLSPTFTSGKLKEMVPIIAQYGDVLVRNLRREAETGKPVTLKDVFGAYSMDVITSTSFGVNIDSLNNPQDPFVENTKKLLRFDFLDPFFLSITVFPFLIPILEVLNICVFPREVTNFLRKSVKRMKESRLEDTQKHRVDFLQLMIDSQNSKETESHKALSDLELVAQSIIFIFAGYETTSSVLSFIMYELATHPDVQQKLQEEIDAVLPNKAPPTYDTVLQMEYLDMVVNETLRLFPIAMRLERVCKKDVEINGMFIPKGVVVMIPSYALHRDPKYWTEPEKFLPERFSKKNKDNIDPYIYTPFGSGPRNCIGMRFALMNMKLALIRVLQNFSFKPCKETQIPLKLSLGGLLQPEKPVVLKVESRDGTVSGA

| CYP(10 μL, %) 3A4 (CYP 3A4) [%] | CYP(10 μL, %) 1A2 (CYP1A2) [%] | CYP(10 μL, %) 2C19 (CYP 2C19) [%] | CYP(10 μL, %) 2D6 (CYP 2D6) [%] | CYP(10 μL, %) 2C9 (CYP 2C9) [%] | Binding assay (1 μLM) [2] | SMILES | suppression of CYP isozymes 1A2, 2C9, 2C19, and 2D6 compared with SR1664 and SR1824 [1] |
| --- | --- | --- | --- | --- | --- | --- | --- |
| 71.88 | 64.12 | 32.45 | 68.34 | 6.43 | – | Cc1c(C)n(Cc2ccc(-c3ccccc3C(=O)O)cc2)c2ccc(C(=O)NC(C)c3ccc(Br)cc3)cc12 (stereo not shown) [2 (SR1824), SR1824, reference compound] | – |
| 71.24 | 97.99 | 79.96 | 86.13 | 64.28 | ++ | C[C@H](NC(=O)c1ccc2c(c1)CCCN2Cc1ccc(-c2ccccc2C(=O)O)cc1)c1ccc(C#N)cc1 [Example 14, (S)-4′-((6-((1-(4-cyanophenyl)ethyl)carbamoyl)-3,4-dihydroquinoline-1(2H)-yl)methyl)-[1,1′-biphenyl]-2-caboxylic acid] | less than the compounds of the comparative examples; also recorded: less strongly than the compounds of the Comparative Examples |
| 58.18 | 98.84 | 52.68 | 75.73 | 51.03 | +++ | C[C@H](NC(=O)c1ccc2c(c1)CCCN2Cc1ccc(-c2ccccc2C(N)=O)cc1)c1ccc(F)cc1 [Example 36, (S)-1-((2′-carbamoyl-[1,1′-biphenyl]-4-yl)methyl)-N-(1-(4-fluorophenyl)ethyl)-1,2,3,4-tetrahydroquinoline-6-carboxamide] | less than the compounds of the comparative examples; also recorded: less strongly than the compounds of the Comparative Examples |
| 70.42 | 94.56 | 59.55 | 97.07 | 56.40 | +++ | C[C@H](NC(=O)c1ccc2c(c1)CCCN2Cc1ccc(-c2ccccc2C(N)=O)cc1)c1ccc2ccccc2c1 [Example 44, (S)-1-((2′-carbamoyl-[1,1′-biphenyl]-4-yl)methyl)-N-(1-(naphthalene-2-yl)ethyl)-1,2,3,4-tetrahydroquinoline-6-carboxamide] | less than the compounds of the comparative examples; also recorded: less strongly than the compounds of the Comparative Examples |
| 59.17 | 100.32 | 75.69 | 82.59 | 58.87 | +++ | C[C@H](NC(=O)c1ccc2c(c1)CCCN2Cc1ccc(-c2ccccc2C(=O)[O-])cc1)c1ccc(C#N)cc1.[Na+] [Example 57, sodium (S)-4′-((6-((1-(4-cyanophenyl)ethyl)carbamoyl)-3,4-dihydroquinoline-1(2H)-yl)methyl)-[1,1′-biphenyl]-2-carboxylate] | less than the compounds of the comparative examples; also recorded: less strongly than the compounds of the Comparative Examples |
| 81.98 | 102.89 | 91.36 | 83.97 | 80.68 | + | C[C@H](NC(=O)c1ccc2c(c1)OCCN2Cc1ccc(-c2ccccc2C(=O)O)cc1)c1ccc(C#N)cc1 [Example 74, (S)-4′-((7-((1-(4-cyanophenyl)ethyl)carbamoyl)-2H-benzo[b][1,4]oxazine-4(3H)-yl)methyl)-[1,1′-biphenyl]-2-carboxylic acid] | less than the compounds of the comparative examples; also recorded: less strongly than the compounds of the Comparative Examples |
| 98.04 | 92.41 | 52.35 | 98.66 | 57.63 | +++ | C[C@H](NC(=O)c1ccc2c(c1)OCCN2Cc1ccc(-c2ccccc2C(N)=O)cc1)c1ccc2ccccc2c1 [Example 96, (S)-4-((2′-carbamoyl-[1,1′-biphenyl]-4-yl)methyl)-N-(1-(naphthalene-2-yl)ethyl)-3,4-dihydro-2H-benzo[b][1,4]oxazine-7-carboxamide] | less than the compounds of the comparative examples; also recorded: less strongly than the compounds of the Comparative Examples |

| SMILES | CYP(10 μL, %) 3A4 (CYP 3A4) [%] | CYP(10 μL, %) 1A2 (CYP1A2) [%] | CYP(10 μL, %) 2C19 (CYP 2C19) [%] | CYP(10 μL, %) 2D6 (CYP 2D6) [%] | CYP(10 μL, %) 2C9 (CYP 2C9) [%] | Binding assay (1 μLM) [2] | suppression of CYP isozymes 1A2, 2C9, 2C19, and 2D6 compared with SR1664 and SR1824 [1] |
| --- | --- | --- | --- | --- | --- | --- | --- |
| C[C@H](NC(=O)c1ccc2c(c1)OCCN2Cc1ccc(-c2ccccc2C(=O)O)cc1)c1ccccc1 [Example 58, (S)-4′-((7-((1-phenylethyl)carbamoyl)-2H-benzo[b][1,4]oxazine-4(3H)-yl)methyl)-[1,1′-biphenyl]-2-carboxylic acid] | 56.92 | 100.93 | 70.53 | 55.23 | 57.47 | + | less than the compounds of the comparative examples; also recorded: less strongly than the compounds of the Comparative Examples |
| C[C@H](NC(=O)c1ccc2c(c1)OCCN2Cc1ccc(-c2ccccc2C(=O)O)cc1)c1ccc([N+](=O)[O-])cc1 [Example 60, (S)-4′-((7-((1-(4-nitrophenyl)ethyl)carbamoyl)-2H-benzo[b][1,4]oxazine-4(3H)-yl)methyl)-[1,1′-biphenyl]-2-carboxylic acid] | 70.64 | 100.63 | 69.60 | 62.27 | 80.25 | ++ | less than the compounds of the comparative examples; also recorded: less strongly than the compounds of the Comparative Examples |
